According to paper PMC11040670, “Mechanistic and Kinetic Insights into Cellular Uptake of Biomimetic Dinitrosyl Iron Complexes and Intracellular Delivery of NO for Activation of Cytoprotective HO-1” (JACS Au, 2024):

Key:
HCEC = assay: Whole-cell EPR: cellular uptake and intracellular formation/decomposition of mononuclear DNIC in HCEC; format: cell-based, human; details: for tmax for cellular uptake and intracellular transformation (whole-cell EPR): normoxia, 75 μM DNIC–COOH or 1 μM DNIC–COOMe
Protocol: Cellular uptake of DNIC–COOH and intracellular formation/decomposition of mononuclear DNICs in MSC/N2a/HCEC cells were investigated using EPR spectroscopy. Briefly, cells were seeded into two (or one) 100 mm dish(es) at a density of 2 × 10^6 cells/dish and incubated at 37 °C overnight. On the next day, cells were treated with 100 μM of DNIC–COOH (or 100 μM of DNIC–COOH to N2a and 75 μM of DNIC–COOH to HCEC) and incubated for 0, 0.5, 1, 2, 3, 4, 8, and 24 h, respectively. After removal of the supernatant solution, cells were washed with DPBS before addition of 1 mL of trypsin (0.05%)/EDTA (0.53 mM) and incubation for 5 min at 37 °C. After the obtained cell suspension solutions from two 100 mm dishes were combined and centrifuged at 100g for 5 min, the supernatant was removed before addition of 100 μL of αMEM to DNIC-treated MSC (or MEM to DNIC-treated N2a and HSFM to DNIC-treated HCEC). This solution was then transferred into EPR quartz tube and frozen in N2(l) before the EPR measurements. For each measured EPR spectrum, double integration was executed to obtain the integrated EPR intensity under each condition. Moreover, time-dependent decay of integrated EPR signal intensity after treatment of DNIC–COOH was fit to pseudo-first-order kinetics in order to determine the intracellular half-life for EPR-active mononuclear DNIC. Three independent experiments were executed to measure the average half-life for intracellular decomposition of EPR-active mononuclear DNIC after treatment with DNIC–COOH at 37 °C. On the other hand, at the time point with maximum integrated EPR signal intensity, spin quantitation of intracellular EPR-active DNICs was performed using mononuclear DNIC [PPN][(NO)2Fe(S5)] as a standard according to the methodology used in the previous work.[50] Cellular uptake of DNIC–COOMe (2.5 μM to MSC, 10 μM to N2a, or 1 μM to HCEC) and intracellular formation/decomposition of EPR-active mononuclear DNICs were investigated using EPR spectroscopy in a similar manner.
Studies of cellular uptake mechanisms were investigated using EPR spectroscopy in combination with pretreatments of alternative inhibitors. After the MSC cells were seeded into two (or one) 100 mm dish(es) at a density of 2 × 10^6 cells/dish and incubated at 37 °C overnight, sequential treatments of 50 μM of NEM for 0.5 h and 100 μM of DNIC–COOH for 2 h were performed before the treated MSC cells were collected for EPR measurement following the procedure described above. […]

cGMP = assay: DNIC-induced cGMP formation in MSC (confocal immunofluorescence); format: cell-based, human; details: 100 μM DNIC–COOH or 2.5 μM DNIC–COOMe, 2 h
Protocol: The MSC cells were plated on a cover glass (18 mm in diameter) loaded into a 24-well plate at a density of 1.7 × 10^3 cells/well until the desired confluency was reached. After the culture media were removed, 100 μM of DNIC–COOH (or 2.5 μM of DNIC–COOMe) was added to the cell culture and incubated for 2 h. The culture media were removed before the MSC cells were washed three times with PBS, whereas the washed MSC cells were further fixed with 4% paraformaldehyde (PFA) solution for 15 min at room temperature. After the PFA solution was removed, the MSC cells were washed twice with PBS for 3 min and permeabilized using 0.1% Triton X-100 (in PBS) at room temperature for 4 min. Subsequently, the MSC cells were washed twice with PBS for 3 min and incubated with a blocking buffer (2.5% BSA in PBS) at room temperature for 30 min. Then, the MSC cells were incubated with primary antibody solution (1:1000 for rabbit anti-cGMP antibody, purchased from Biorbyt, Cambridge, U.K.) at room temperature for 1 h before the MSC cells were washed three times with PBS for 3 min. Cover glasses containing the fixed MSC cells were mounted onto a microscope slide loaded with Fluoroshield mounting medium with DAPI to stain the nuclei before the optical images were captured using a confocal imaging system (Leica TCS-SP-X AOBS).

Structure (SMILES) | relative whole-cell EPR signal intensity at gav = 2.03 (control = 100%) (HCEC; HCEC, native FBS replaced with 2% NEM-treated FBS) [%] | tmax for cellular uptake and intracellular transformation (whole-cell EPR) (HCEC; HCEC) [h] | relative whole-cell EPR signal intensity at gav = 2.03 (control = 100%) (HCEC; HCEC, pretreatment of NEM 0.5 h, then DNIC–COOMe 0.5 h, reduction) [%] | formation of cGMP (cGMP) | relative whole-cell EPR signal intensity at gav = 2.03 (control = 100%) (HCEC; MβCD-treated HCEC) [%] | relative whole-cell EPR signal intensity at gav = 2.03 (control = 100%) (HCEC; genistein-treated HCEC) [%]
COC(=O)CC[SH]1[Fe]([N]=O)([N]=O)[SH](CCC(=O)OC)[Fe]1([N]=O)[N]=O (centres unmarked) [DNIC–COOMe, [(NO)2Fe(μ-SCH2CH2COOCH3)2Fe(NO)2]] | 99.9 ± 15.3 | 0.5 | 35.8 ± 2.3 | elevated formation of cGMP |  | 
O=[N][Fe]1([N]=O)[SH](CCC(=O)O)[Fe]([N]=O)([N]=O)[SH]1CCC(=O)O (centres unmarked) [DNIC–COOH, [(NO)2Fe(μ-SCH2CH2COOH)2Fe(NO)2]] |  | 8 |  | elevated formation of cGMP | 77.5 ± 11.1 | 72.1 ± 5.9
